Measured values: patent US9682925B2, “Cyclopropaneamine compound” (TAKEDA PHARMACEUTICAL COMPANY LIMITED, priority 2011, dated 2017)
Where a name gives a salt, the structure may show the parent alone.

Experiments:
[1] = test system: HEL92.1.7 acute myeloid leukemia cells; assay: Tumor growth suppressive effect test using HEL92.1.7 acute myeloid leukemia cell; assay type: in vivo, SCID mice; details: change rate in tumor volume, vehicle-treated group = 100%, 30 mg/kg orally once per day
Experimental: Tumor Growth Suppressive Effect Test Using HEL92.1.7 Acute Myeloid Leukemia Cell
6-Week-old SCID mice were subcutaneously transplanted with 5×10^6 cells/100 μl of HEL92.1.7 acute myeloid leukemia cells, and the mice were grouped according to the body weight and tumor volume after 15 to 17 days. Vehicle (0.5% methylcellulose) or compound A, compound B or compound C was administered orally to mice (5 mice per group). The administration was once per day and performed continuously during the dosing period. Setting the change in tumor volume of the vehicle-treated group as 100%, the change rate in tumor volume of the compound-treated group (T/C %) was calculated. The tumor volume was determined by measuring the long diameter m and short diameter of the tumor with a vernier caliper, and calculating by the following calculation formula: (long diameter)×(short diameter)×(short diameter)/2.

[2] = biological target: T1, MAO-A (Homo sapiens, UniProt P21397); assay: Measurement of MAO-A inhibitory activity (MAO-Glo Assay); assay type: biochemical
T1 construct: purchased Sigma-Aldrich Co. LLC
T1 sequence (P21397 1-527): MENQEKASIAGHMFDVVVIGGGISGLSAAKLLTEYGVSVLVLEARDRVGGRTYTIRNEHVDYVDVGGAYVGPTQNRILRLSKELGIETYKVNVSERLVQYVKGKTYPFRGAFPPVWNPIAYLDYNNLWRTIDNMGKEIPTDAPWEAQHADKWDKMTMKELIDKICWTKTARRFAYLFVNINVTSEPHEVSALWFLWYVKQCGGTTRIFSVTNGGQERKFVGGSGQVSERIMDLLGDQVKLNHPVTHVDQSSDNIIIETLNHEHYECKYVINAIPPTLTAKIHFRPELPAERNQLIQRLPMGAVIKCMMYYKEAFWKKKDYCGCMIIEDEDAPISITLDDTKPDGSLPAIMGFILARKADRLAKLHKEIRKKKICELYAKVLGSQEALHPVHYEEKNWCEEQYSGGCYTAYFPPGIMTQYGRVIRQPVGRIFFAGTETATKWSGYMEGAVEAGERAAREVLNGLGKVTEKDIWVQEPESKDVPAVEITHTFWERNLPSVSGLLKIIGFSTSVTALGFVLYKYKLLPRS
Procedure, shortened: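 Luminescent MAO-Glo read-out: % inhibition computed from counts relative to enzyme-only control and enzyme-free blank. Compound and 400 ng MAO-A in HEPES pH 7.5 with 5% glycerol stood 10 min at room temperature before MAO substrate (160 μM stock) started a 60 min reaction.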

[3] = biological target: T2, MAO-B (Homo sapiens, UniProt P27338); assay: Measurement of MAO-B inhibitory activity (MAO-Glo Assay); assay type: biochemical
T2 construct: purchased Sigma-Aldrich Co. LLC
T2 sequence (P27338 1-520): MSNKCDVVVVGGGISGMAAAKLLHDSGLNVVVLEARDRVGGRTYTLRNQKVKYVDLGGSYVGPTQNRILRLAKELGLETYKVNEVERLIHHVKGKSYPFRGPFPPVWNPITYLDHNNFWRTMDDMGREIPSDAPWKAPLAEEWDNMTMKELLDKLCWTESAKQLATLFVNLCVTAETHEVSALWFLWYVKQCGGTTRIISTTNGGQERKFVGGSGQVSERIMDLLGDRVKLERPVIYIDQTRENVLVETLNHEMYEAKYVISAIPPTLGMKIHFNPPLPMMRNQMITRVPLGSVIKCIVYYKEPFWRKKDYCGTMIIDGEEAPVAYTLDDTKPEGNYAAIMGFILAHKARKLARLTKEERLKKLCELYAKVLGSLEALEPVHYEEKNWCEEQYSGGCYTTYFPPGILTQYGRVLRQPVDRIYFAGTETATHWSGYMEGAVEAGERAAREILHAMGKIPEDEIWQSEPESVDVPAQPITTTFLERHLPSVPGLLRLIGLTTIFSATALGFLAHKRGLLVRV
Procedure, shortened: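 Percent inhibition was calculated from luciferin-based luminescence, corrected with a blank lacking enzyme and a control lacking compound. The reaction ran 60 min at room temperature after adding MAO substrate (16 µM as added). This followed a 10 min compound–enzyme preincubation in HEPES pH 7.5 buffer.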

[4] = biological target: T3, human LSD1(171-852) (Homo sapiens, UniProt O60341); assay: Measurement of LSD1 inhibitory activity (time-resolved fluorescence, biotin-histone H3 mono methylated K4 peptide); assay type: biochemical; details: read-out: LSD1 IC50 value
T3 construct: to give hLSD1(171-852) purified product; made in house; host or cells: Escherichia coli C43(DE3) pLysS

| IC50 [2] [µM] | IC50 [3] [µM] | IC50 [4] [µM] | SMILES | T/C (%) ([1]; dosing period 7 days) | T/C (%) ([1]; dosing period 14 days) |
| --- | --- | --- | --- | --- | --- |
| > 10 | > 10 | < 0.1 | CN1CCC(N[C@@H]2C[C@H]2c2ccc(NC(=O)c3cccc(C(F)(F)F)c3)cc2)CC1 (relative stereo) [Example 76, N-(4-{trans-2-[(1-methylpiperidin-4-yl)amino]cyclopropyl}phenyl)-3-(trifluoromethyl)benzamide dihydrochloride] | −8.08 | – |
| > 10 | > 10 | < 0.1 | O=C(Nc1ccc([C@@H]2C[C@H]2NCC2CC2)cc1)c1cn[nH]c1 (relative stereo) [Example 79, N-(4-{trans-2-[(cyclopropylmethyl)amino]cyclopropyl}phenyl)-1H-pyrazole-4-carboxamide hydrochloride] | – | 46.42 |

| SMILES | IC50 [2] [µM] | IC50 [3] [µM] | IC50 [4] [µM] | T/C (%) ([1]; dosing period 7 days) | T/C (%) ([1]; dosing period 14 days) |
| --- | --- | --- | --- | --- | --- |
| O=C(Nc1ccc([C@@H]2C[C@H]2NCC2CC2)cc1)c1ccc(-c2ccccc2)cc1 (single isomer, unassigned) [Example 59, N-(4-{trans-2-[(cyclopropylmethyl)amino]cyclopropyl}phenyl)biphenyl-4-carboxamide hydrochloride] | 7.1 | > 10 | – | – | 12.54 |
